14 compounds from patent US8481522B2, “Platinum-N-heterocyclic carbene derivatives, preparation thereof and therapeutic use thereof” (Sanofi, priority 2008, dated 2013) can be followed below.

Holding throughout (type): cell-based
The subject of assay [1] is CCRF-CEM cells. Put plainly: Cytotoxicity, non-adherent CCRF-CEM cells, CellTiter-Glo luminescent cell viability. As to conditions: CCRF-CEM human T leukaemia, 96 h incubation. How it is done:
CCRF-CEM is a human T leukaemia (Cancer 1965, 18: 522-529). Oxaliplatin induces bifunctional lesions such as inter- and intra-DNA strand adducts on these CCRF-CEM cells (Mol Pharmacol 2000, 58: 920-927). […] This deficiency makes these cells particularly […] to alkylating agents and to platinum compounds.
For the non-adherent CCRF-CEM cells, the cell viability is measured by the luminescence test CellTiter-Glo® Luminescent Cell Viability Assay (Promega, Madison, Wis., USA). When it is added to the cells, the reagent produces a luminescence in the presence of the ATP of the living cells. The results are evaluated on a suitable reader (Envision, Perkin-Elmer Life Sciences, Boston, Mass., USA).
The CCRF-CEM cells are cultured in RPMI1640 medium containing 10% foetal calf serum, 2 mM L-glutamine, 100 units/ml of penicillin and […] of streptomycin, at 37° C. in a 95% air/5% CO2 atmosphere. The cells, at the exponential growth phase, are introduced into the wells of a 96-well plate at the density of 5×10^3 cells per well in an opaque plate (Greiner), in a volume of 150 μl. After incubating for 4 h at 37° C. in a 95% air/5% CO2 atmosphere, the compounds (concentrated 20-fold) are added in a volume of 8 μl. The compounds are prepared beforehand as a stock solution at the concentration of 10 mM in DMSO. A serial dilution is performed before the compounds are brought into contact with the cells. After incubating for 96 h at 37° C., 100 μl of agents (CellTiter-Glo) are added. After lysing the cells, the release of ATP is evaluated on the Envision reader.
(§1) The IC50 values are evaluated from curves presenting the percentage viability as a function of the concentration of the test compound, using the Biostat speed software. The IC50 is defined as the concentration of the compound which inhibits 50% of the cell proliferation or 50% of the cell viability.
(In ATP-based viability assays light output follows the ATP content of the culture.)

For assay [2], the system named is A2780. Briefly: Cytotoxicity, adherent cells, 14C-thymidine incorporation (cell proliferation). The conditions noted are these: A2780 human ovarian cancer, 96 h treatment.
Description: (§2) A2780 and A2780/DDP are human ovarian cancer lines. […] The resistance of the A2780/DDP line is of the acquired type and involves various mechanisms: —reduction in the capacity for internalization of cisplatin, —replicative bypass (this is defined as the possibility for a replicative complex to synthesize DNA beyond the site of damage) (Cancer Res 1994; 54:3500-3505), —active detoxification by glutathione (Exp Oncol 2005; 27:191-195), —low activity of Caspase-3, enzymes involved in the process of programmed cell death (J Cancer Res Clin Oncol 2004; 130:423-428) and finally high nuclear efflux of platinum compounds (Oncol Rep 2004; 12:1365-1370).
(§3) Cell proliferation is evaluated by the incorporation of ^14C-thymidine into the DNA of the cells. A549, CH1, CH1/DDP and H460 are cultured in Dulbecco's modified Eagle's medium (DMEM), SK-OV-3 in Mc-Coy medium, A2780 and A2780/DDP in RPMI1640 medium. All the media contain 10% foetal calf serum, 2 mM L-glutamine, 100 units/ml of penicillin and […] of streptomycin. The incubation is performed at 37° C. in a 95% air/5% CO2 atmosphere.
(§4) The cells, at the exponential growth phase, are introduced into the wells of a Cytostar 96-well plate, containing a scintillation fluid (Cytostar-T scintillating microplate, GE Healthcare Bio-Sciences AB, Uppsala, Sweden), at the density of 5×10^3 to 10^4 cells per well, in an amount of 180 μl per well. After incubating for 4 hours, the test compounds are added. The compounds are prepared beforehand as a stock solution at the concentration of 10 mM in DMSO. A serial dilution is performed before the compounds are brought into contact with the cells in a volume of 10 μl. After incubating for 72 hours at 37° C. in an atmosphere of 95% air/5% CO2, 0.1 μCi/well of ^14C-thymidine is added. 24 h later (total 96 h of treatment), the incorporation of ^14C-thymidine is recorded on a suitable scintillation counter (MicroBeta radioactivity counting, Perkin-Elmer Life Sciences, Boston, Mass., USA). The mean values obtained in the experimental groups are divided by the mean values obtained in the control groups in order to obtain percentages relative to the controls.
as §1

The subject of assay [3] is A2780/DDP. The description is as above. The conditions noted are these: A2780/DDP cisplatin-resistant human ovarian cancer, 96 h treatment.
Description: as §2, §3, §4, §1

In assay [4] the test system is SK-OV-3. The assay is described as above. As to conditions: SK-OV-3 human ovarian cancer, 96 h treatment, read-out: SKOV3 IC50. As for the experimental part:
SK-OV-3 is a human ovarian cancer. […] This cell has an intrinsic mechanism of resistance to cisplatin which is linked to high levels of glutathione (Br J Cancer 1998; 78:175-180). This cell line is commonly used to explore the effects of high levels of glutathione on the resistance to platinum compounds (Br J Cancer 1996, 74: 380-386).
as §3, §4, §1

Assay [5] deals with H460. The assay is described as above. The conditions noted are these: NCI-H460 human non-small cell lung cancer, 96 h treatment. As for the experimental part: NCI-H460 is a human non-small cell lung cancer which has a mutation in the K-ras gene. This cell is sensitive to platinum compounds. In this cell line, cisplatin forms more adducts than oxaliplatin at the same concentration and yet the percentage repair is higher for oxaliplatin (DNA Repair 2006, 5: 219-225).
as §3, §4, §1

Assay [6] relates to CH1/DDP. The assay is described as above. As to conditions: CH1/DDP cisplatin-resistant human ovarian cancer, 96 h treatment.
Description: (§5) CH1 and CH1 CisR are human ovarian cancers which are sensitive and resistant to cisplatin, respectively. The relative sensitivity of the CH1 cell may be at least partially attributed to a deficiency of a gene involved in repair processes and which is capable of removing the adducts (Chemico-Biological Interactions, 1999; 123:11-29). The CH1cisR cell is resistant to cisplatin through a poorly known mechanism of DNA repair, or increase in the tolerance of the cell to the damage caused by cisplatin to the DNA of this cell (Mol Pharmacol 2003; 63:933-944, Cancer Res 52: 3857-3864).
as §3, §4, §1

For assay [7], the system named is CH1. The description is as above. The conditions noted are these: CH1 human ovarian cancer, 96 h treatment.
Description: as §5, §3, §4, §1

Where “and” joins values, the source holds several entries; their conditions need not be identical. Identical values can stand only once.

Regarding `Cn1ccn(Cc2ccccc2)[c]1=[Pt-]([I])([I])[NH2+]C1CCCCC1` [Example 5, trans-diiodo(N-cyclohexylamine)(1-methyl-3-benzylimidazol-2-ylidene)platinum(II)], the IC50 – broadly, the midpoint of a concentration-inhibition curve – in assay [1] is 1200 nM and 1400 nM; in assay [2], 900 nM; in assay [3] it was 1800 nM; in assay [4], 6500 nM; in assay [5], 1700 nM and 2700 nM; in assay [6], 2400 nM. Moreover, the IC50 in assay [7] was 2400 nM.
Take `Cn1[c](=[Pt-]([I])([I])[NH2+]C2CC3CCC2C3)n(C)c2ccccc21` (single isomer, unassigned) [Example 17, trans-diiodo(N-exo(−)bicyclo[2.2.1]heptylamine)(1,3-dimethylbenzimidazol-2-ylidene)platinum(II)]: the 50% inhibitory concentration (IC50) in assay [1] came out at 1800 nM; in assay [2], 1100 nM; in assay [3], 2200 nM; in assay [4], 5000 nM; in assay [5], 1100 nM.
Consider `Cn1[c](=[Pt-]([I])([I])[NH2+]C2CC3CCC2C3)n(C)c2ccccc21` (single isomer, unassigned) [Example 16, trans-diiodo(N-exo(+)bicyclo[2.2.1]heptylamine)(1,3-di-methylbenzimidazol-2-ylidene)platinum(II)], for which the IC50 in assay [1] came out at 1400 nM; in assay [2] it was 1100 nM; in assay [3], 2700 nM; in assay [4] it was 4100 nM; in assay [5] it was 4100 nM.
With `O=C1[O][Pt]2([NH][C@@H]3CCCC[C@H]3[NH]2)[O]C1=O` [Oxaliplatin, oxaliplatin, reference compound], the IC50 in assay [1] was 900 nM; in assay [2], 3900 nM; in assay [3], 17300 nM; in assay [4], above 10000 nM; in assay [5] it was 4000 nM; in assay [6] it was 6200 nM. In assay [7], this compound came in with an IC50 of 4200 nM.
On to `[I][Pt-2]([I])([NH2+]C1CCCCC1)[c]1n(Cc2ccccc2)cc[n+]1Cc1ccccc1` [Example 12, trans-diiodo(N-cyclohexylamine)[1,3-dibenzylimidazol-2-ylidene]-platinum(II)], for which the IC50 in assay [1] is 1300 nM; in assay [2] it was 700 nM; in assay [3], 1200 nM; in assay [4], 2800 nM; in assay [5], 3400 nM.
For `N.N.[Cl][Pt][Cl]` [Cisplatin, cisplatin, reference compound], the IC50 in assay [1] was 3000 nM; in assay [2], 9000 nM; in assay [3], above 10000 nM; in assay [4] it was 6100 nM; in assay [5], 2400 nM; in assay [6], above 10000 nM. In assay [7], this compound showed an IC50 of 8000 nM.
As to `C=Cn1ccn(C)[c]1=[Pt-]([I])([I])[NH2+]C1CCCCC1` [Example 15, trans-diiodo(N-cyclohexylamine)[1-methyl-3-vinylimidazol-2-ylidene]platinum(II)], the IC50 in assay [1] turned out to be 2100 nM; in assay [5], 3800 nM.
Consider `Cn1ccn(Cc2ccc(C(F)(F)F)cc2)[c]1=[Pt-]([I])([I])[NH2+]C1CCCCC1` [Example 11, trans-diiodo(N-cyclohexylamine)[1-methyl-3-(4-trifluoromethylbenzyl)imidazol-2-ylidene]platinum(II)], for which the concentration for half-maximal inhibition (IC50) in assay [1] is 1000 nM; in assay [2], 800 nM; in assay [3] it was 1100 nM; in assay [4] it was 2600 nM; in assay [5] it was 1500 nM.
In the case of `CC(C)(C)[n+]1ccn(Cc2ccccc2)[c]1[Pt-2]([I])([I])[n+]1ccccc1` [Reference product, trans-diiodo(pyridine)(1-benzyl-3-tert-butylimidazol-2-ylidene)platinum(II), reference compound], the 50% inhibitory concentration (IC50) came out at 3900 nM in assay [1] and 4400 nM in assay [5].
On to `C[n+]1c(-c2ccccc2)c(-c2ccccc2)n(Cc2ccccc2)[c]1[Pt-2]([I])([I])[NH2+]C1CCCCC1` [Example 26, trans-diiodo(N-cyclohexylamine)[3-benzyl-4,5-diphenyl-1-methyl-imidazol-2-ylidene]platinum (II)], for which the half-inhibitory concentration (IC50) is 1200 nM in assay [1] and 2900 nM in assay [5].
`Cn1c(-c2ccccc2)c[n+](C)[c]1[Pt-2]([I])([I])[NH2+]C1CCCCC1` [Example 20, trans-diiodo(N-cyclohexylamine)[1,3-dimethyl-4-phenylimidazol-2-ylidene]platinum(II)]: the figures for the IC50 in assay [1] and in assay [5] were 2100 nM and 4400 nM, respectively.
Taken in the same sequence, the figures for `Cn1cc[n+](Cc2ccc(C(F)(F)F)cc2)[c]1[Pt-2]([I])([I])[NH2+]C1CCOCC1` [Example 37, trans-diiodo(N-tetrahydropyran-4-ylamine)(1-methyl-3-(4-trifluoro-methylbenzyl)imidazol-2-ylidene)platinum(II)] were 900 nM and 1400 nM.
Taken in the same sequence, the figures for `Cn1ccn(C)[c]1=[Pt-]([I])([I])[NH2+]C1CC2CCC1C2` (single isomer, unassigned) [Example 23, trans-diiodo(N-exo(+)bicyclo[2.2.1]heptylamine)(1,3-dimethylimidazol-2-ylidene)platinum(II)] were 1600 nM and 2300 nM.
On to `COc1ccc(Cn2ccn(C)[c]2=[Pt]([I])([I])[NH]C2CCCCC2)cc1` [Example 10, trans-diiodo(N-cyclohexylamine)[1-methyl-3-(4-methoxybenzyl)-imidazol-2-ylidene]platinum(II)], for which the IC50 in assay [1] turned out to be 1600 nM; in assay [2], 1600 nM; in assay [3], 2300 nM; in assay [4], 5200 nM; in assay [5], 3800 nM.
